These results are taken from patent EP3510997B1, “SOFT GELATIN CAPSULES COMPRISING A SUSPENSION OF TADALAFIL” (Gap S.A., priority 2018, dated 2019).

The conditions of data set [1]: cited from earlier work.
The nature of data set [2]: Solubility studies of tadalafil in vegetable oils. Format: physicochemical. To be noted: such as olive oil, sunflower oil, safflower oil, soybean oil. From the text: Suspension formulations of tadalafil were initially produced in soybean oil, and in a mixture of hydrogenated and partially-hydrogenated soybean oil in order to produce a stable suspension.

Consider `CN1CC(=O)N2[C@H](c3ccc4c(c3)OCO4)c3[nH]c4ccccc4c3C[C@@H]2C1=O` [Tadalafil, (6R,12aR)-6-(Benzo[d][1,3]dioxol-5-yl)-2-methyl-2,3,12,12a], for which the “solubility in ethanol and other organic solvents” value in data set [1] (ethanol and other organic solvents) was “very slightly soluble”. In data set [1] (water), the solubility in water entry was “practically insoluble”. For the same compound, the “solubility in vegetable oils” value in data set [2] is “practically insoluble”.
